Article PMC9658513, “Discovery of Compounds That Selectively Repress the Amyloidogenic Processing of the Amyloid Precursor Protein: Design, Synthesis and Pharmacological Evaluation of Diphenylpyrazoles” (International Journal of Molecular Sciences, 2022)
Like-named read-outs stand apart in the source and are kept apart here.

Tests used:
SY5Y-APP^695WT cells [1] = settings: 50% cell death after 72 h treatment; read-out: Cytotox. CC50; cited from earlier work
Aβ1–40 peptide secretion [2] = settings: SY5Y cells; cited from earlier work
[3] = test system: αCTF (APP carboxy-terminal fragment); assay: αCTF level by Western blotting in SY5Y-APP^WT cells; type: cell-based, human; settings: for EC (20-fold increase): concentration increasing αCTF 20-fold vs untreated control, SY5Y-APP^WT cells, read-out: αCTF (C20)
Method: (§1) The final and selected intermediate compounds were evaluated for their ability to modulate APP processing in the SH-SY5Y human neuroblastoma cell line stably expressing the neuronal isoform of human wild-type APP^695 (SY5Y-APP^WT), a well-established model for the study of APP metabolism. APP carboxy-terminal fragments (αCTFs and AICD) levels were assessed by Western blotting (WB). The effect of the reference and test compounds on αCTFs and AICD is expressed as the intensity of corresponding WB bands. The concentration of compounds able to increase 20-times αCTFs and AICD (C20) when compared to the control condition was calculated. Selected compounds were also evaluated for their ability to modulate the secretion of soluble APP fragments (sAPPα and sAPPβ). Aβ1–x levels (Aβ1–40 and Aβ1–42) after treatment with the reference and tested compounds were measured in the cell media by ELISA (Table 1). […] Selected hit compounds were then further evaluated for their ability to decrease the level of N-truncated Aβ peptides (Aβx–38, Aβx–40, and Aβx–42).
(§2) The human neuroblastoma cell line SY5Y-APP^695WT was maintained in Dulbecco’s modified Eagle medium (DMEM, high glucose, pyruvate—GIBCO, Life Technologies, Carlsbad, CA, USA) supplemented with 10% fetal bovine serum, 2 mM L-glutamine, 1 mM non-essential amino acids and penicillin/streptomycin (GIBCO, Life Technologies, Carlsbad, CA, USA) at 37 °C in a 5% CO2 humidified incubator [36]. For compound treatment, a 10 mM stock solution was diluted in freshly supplemented DMEM medium to obtain the precise final concentration of the drug. Cells were plated at a density of 5 × 10^5 cells per well into 12-well plates and cultured with 1 mL supplemented DMEM cell medium for 24 h before compound exposure. The following day, the cell medium was replaced with fresh medium containing the compounds diluted at the indicated concentrations. Cells were treated for 24 h. At the end of the treatments, the cell medium was collected and kept at −80 °C until use, cells were rinsed once with PBS and extracted in 100 µL of Laemmli buffer (10 mM Tris, 20% glycerol, and 2% sodium dodecyl sulfate) using a cell-scraper. The cell lysate was further sonicated (30 pulses of 0.5 s, 60 Hz) for 5 min. Total protein concentration was determined using the Pierce BCA Protein Assay Kit (Thermo Scientific, Waltham, MA, USA) according to the manufacturer’s instructions. Samples were stored at −80 °C until analysis.
(§3) Cell protein lysates were prepared for Western blot analysis by diluting the sample with 1 volume of NuPAGE® lithium dodecyl sulfate (LDS) 2X sample buffer supplemented with 20% NuPAGE® sample reducing agents (Invitrogen). Samples were heated for 10 min at 100 °C. Ten µg of total proteins per well were loaded onto precast 4–12% Criterion XT Bis-Tris polyacrylamide gels (Bio-Rad) and electrophoresis was achieved after applying a tension of 150 V for 90 min using a Criterion electrophoresis cell with the NuPAGE® MOPS SDS running buffer (1X). Proteins were transferred to a nitrocellulose membrane of […] pore size (G&E Healthcare, Madison, WI, USA) using the Criterion blotting system and applying a tension of 100 V for 45 min. To resolve proteins of low molecular weights such as carboxy-terminal fragments of APP, 12% Criterion XT Bis-Tris polyacrylamide gels (Bio-Rad, Hercules, CA, USA) were used, and electrophoresis was performed for 70 min at 150 V in a NuPAGE® MES SDS running buffer (1X). Proteins were transferred to a nitrocellulose membrane of 0.2 µm pore size (G&E Healthcare, Madison, WI, USA) at 100 V for 40 min. Molecular weight calibration was achieved using molecular weight markers (Novex and Magic Marks, Life Technologies, Carlsbad, CA, USA). Protein transfer and quality were determined by a reversible Ponceau Red coloration (0.2% xylidine Ponceau Red and 3% trichloroacetic acid). […]

sAPPα = sAPPα secretion (MSD sAPPα/sAPPβ Multiplex Kit); type: cell-based, human; settings: concentration increasing sAPPα 1.5-fold vs untreated control
Method: (§4) A selection of compounds with several selected activities was performed including sAPPα and sAPPβ, which were further explored. […] The decrease in Aβ could result from a decrease in either β- or γ-secretase cleavage or an increase in the α-secretase cleavage of APP. Thus, medium concentrations of sAPPβ and sAPPα, which are the β- and α-secretase extramembrane shed APP fragments, were determined after cell drug treatments.
as §2, with “The cell lysate was further sonicated (30 pulses of 0.5 s, 60 Hz) for 5 min.” left out, “Samples were stored at −80 °C until analysis.” left out
(§5) Aβ1–40/Aβ1–42 peptides, Aβx–38/Aβx–40/Aβx–42, and sAPPα/sAPPβ concentrations in pg/mL were determined, respectively, using amyloid-beta 40 and 42 Human ELISA Kits (Invitrogen), the V-PLEX Plus Aβ Peptide Panel 1 (4G8) Kit (Meso Scale Diagnostics, MSD R©, Rockville, MD, USA), and the sAPPα/sAPPβ Multiplex Kit (Meso Scale Diagnostics, MSD R©, Rockville, MD, USA) according to the manufacturer’s instructions.

sAPPβ secretion = sAPPβ secretion (MSD sAPPα/sAPPβ Multiplex Kit); type: cell-based, human; settings: SY5Y cells, mean ± SD of at least three experiments in triplicate
Method: as §4, §2
(§6) Conditioned media of SY5Y-APP^695WT collected at the end of treatments were centrifuged at 1000× g for 5 min to eliminate cell debris.
as §5

Aβ1–42 peptide secretion = assay: Aβ1–42 secretion in cell medium by ELISA; type: cell-based, human; settings: SY5Y-APP^WT cells, 24 h treatment, mean ± SD of at least three experiments in triplicate
Method: as §1, §2, §6, §5

[4] = test system: AICD (APP intracellular domain); assay: AICD level by Western blotting in SY5Y-APP^WT cells; type: cell-based, human; settings: concentration increasing AICD 20-fold vs untreated control, read-out: AICD (C20)
Method: as §1, §2, §3

in vitro = type: cell-based, human; settings: human
Method: (§7) Cytotoxicity was measured using 3-(4,5-dimethylthiazol-2-yl)-5-(3-carboxymethoxyphenyl)-2-(4-sulfophenyl)-2H-tetrazolium (MTS) tests. SY5Y-APP^695WT cells were plated in a 96-well plate at 3 × 10^4 cells per well and allowed to attach for 24 h. Cells were then incubated for 72 h with 100 µL of DMEM with 10% SVF containing (or not) the defined concentration of drugs. Cytotoxicity was determined by using the colorimetric MTS assay (Cell Titer 96® Aqueous One Solution Cell Proliferation Assay-MTS Promega, Madison, WI, USA) according to the manufacturer’s instructions. Absorbance was read at 490 nm.

Aβ1–40 peptide secretion [5] = assay: Aβ1–40 secretion in cell medium by ELISA; type: cell-based, human
Method: as §1, §2, §6, §5

p62/LC3 = assay: Ratio between p62 and LC3 expression levels; type: cell-based, human; settings: compound at 3 µM, 24 h, SY5Y-APP^wt cells
Source text: Compounds from both series were selected to first determine the potential relationship between the repression of Aβ1–x production and the increased expression of LC3 and p62. […] We then also considered the ratio between the p62 and LC3 expression levels.
Figure 3 Effect of compounds 24, 33, 34, 57, 65, 67, 70, and 71 on the autophagic flux in SY5Y-APP^wt cells. […] Cell lysates were immunolabeled with the following antibodies: p62 (a), LC3 (b), and β-actin. Statistical significance was set at * p < 0.05, ** p < […], *[…], **** p < 0.0001, and ns as not significant.

SY5Y-APP^695WT cells [6] = assay: in vitro; type: cell-based, human
Method: as §7

Row | Molecule | CC50 (SY5Y-APP^695WT cells [1]) [µM] | IC50 (Aβ1–40 peptide secretion [2]) [µM] | C20 for CTFα and AICD ([3]; CTFα and AICD together) | EC (20-fold increase) ([3]; Homo sapiens) [µM] | sAPPα C1.5 (sAPPα) [µM] | IC50 (sAPPβ secretion; Homo sapiens) [µM] | IC50 (Aβ1–42 peptide secretion; Homo sapiens) [µM] | EC (20-fold increase) ([4]; Homo sapiens) [µM] | CC50 at 72 h (in vitro) [µM] | IC50 (Aβ1–40 peptide secretion [5]; Homo sapiens, Aβ1–40 and Aβ1–42 not distinguished, read-out: IC50 for Aβ secretion (Aβ1–x production)) [µM] | IC50 (Aβ1–40 peptide secretion [5]; Homo sapiens, SY5Y-APP^WT cells, 24 h treatment, mean ± SD of at least three experiments in triplicate, read-out: Aβ1–40 IC50) [µM] | EC (20-fold increase) [3] [µM] | p62/LC3 (p62/LC3) | IC50 (sAPPβ secretion) [µM] | IC50 (Aβ1–42 peptide secretion) [µM] | EC (20-fold increase) [4] [µM] | CC50 (SY5Y-APP^695WT cells [6]) [µM] | Cytotox. CC50 (SY5Y-APP^695WT cells [6]) [µM] | IC50 (Aβ1–40 peptide secretion [5]; SY5Y-APP^WT cells, 24 h treatment, mean ± SD of at least three experiments in triplicate, read-out: Aβ1–40 IC50) [µM]
1 | CCN(CC)CCCC(C)Nc1ccnc2cc(Cl)ccc12 (centres unmarked) [CQ, chloroquine, reference compound] | 30 | 7 | – | – | – | – | – | – | – | – | – | – | – | – | – | – | – | – | –
2 | Cc1cn(-c2cccc(CN(C)CCCN(C)C)c2)nc1-c1ccc(CN(C)CCCN(C)C)cc1 [Compound 69, [3-(Dimethylamino)propyl][(4-{1-[3-({[3-(dimethylamino)propyl](methyl)amino}methyl)phenyl]-4-methyl-1H-pyrazol-3-yl}phenyl)methyl]methylamine] | – | – | around 1 µM | 0.6 | >5 | 2.8 ± 1.1 | 1.6 ± 0.1 | 1 | 2 | ~1 | 1.4 ± 0.1 | – | – | – | – | – | – | – | –
3 | N′-[[3-[4-(Dimethylaminomethyl)-3-[4-[3-(dimethylamino)propyl]phenyl] Pyrazol-1-yl]phenyl]methyl]-N,N,N′-trimethyl-propane-1,3-diamine [Compound 34] | – | – | – | – | >10 | – | – | – | – | – | – | 1.1 | 0.91 | 4.5 ± 0.7 | 8.3 ± 0.2 | 1.9 | > 100 | 100 | 5.7 ± 0.5
